# Assay results: PMC4628094, “In Vitro Assessment of Uptake and Lysosomal Sequestration of Respiratory Drugs in Alveolar Macrophage Cell Line NR8383” (Pharmaceutical Research, 2015)
# Structures can show the parent of a compound that is named as a salt. Where two headings read alike, the source gives them in different places.
# Tests used:
# [1] = Physicochemical properties, experimental literature values (Table I); details: classification in Table I
# [2] = experimental value; ref ([21])-([30]) per drug, Table I; cited from earlier work
# NR8383 cells [3] = details: high drug concentrations (50 and 100 μM per method), not stated at the place
# [4] = Lysosomal sequestration studies in NR8383 with NH4Cl, monensin and nigericin; details: rat; for Kp at 10 min, 5 μM: NR8383, 5 μM drug; for Kp at 10 min, 20 µM: NR8383, 20 µM drug
# NR8383 cells [5] = assay: as above; details: for % Reduction in Kp by NH4Cl: NH4Cl 20 mM
# [6] = Accumulation (Kp) in NR8383 over a concentration range, two-site binding model; details: rat, control
# NR8383 cells [7] = assay: as above; details: apparent saturable uptake equilibrium constant, two-site binding model, control
# [8] = Drug uptake in NR8383 at 37 and 4°C (CLuptake, CLdiff, Kp); details: rat
# NR8383 cells [9] = assay: as above; details: NR8383, 5 μM; CLdiff relative to CLuptake
# [10] = tested on: Lung granule fraction containing lysosomes from male Wistar rats; parameters: method as in ref (6) (a number printed in a supplementary file, which may have a reference list of its own: not looked up in the article's list); details: NH4Cl 10 mM, drug 1 µM, 10 min; ref (6); cited from earlier work
# [11] = tested on: Lung tissue slices from male Wistar rats; parameters: method as in ref (7) (a number printed in a supplementary file, which may have a reference list of its own: not looked up in the article's list); details: NH4Cl 3 mg/min/kg (i.v. infusion), drug 3.2 mg/kg (i.v. injection), 360 min, ref (7); cited from earlier work
# [12] = tested on: Liver tissue slices from male Wistar rats; parameters: method as in ref (7) (a number printed in a supplementary file, which may have a reference list of its own: not looked up in the article's list); details: NH4Cl 3 mg/min/kg (i.v. infusion), drug 3.2 mg/kg (i.v. injection), 360 min, ref (7); cited from earlier work
# [13] = tested on: Liver tissue slices from male Wistar rats; parameters: method as in ref (14) (a number printed in a supplementary file, which may have a reference list of its own: not looked up in the article's list); details: monensin 10 µM, drug 5 µM, 60 min, ref (14); cited from earlier work
# [14] = tested on: Lung tissue slices from male Wistar rats; parameters: method as in ref (8) (a number printed in a supplementary file, which may have a reference list of its own: not looked up in the article's list); details: drug 5 µM, 60 min, ref (8), cited from earlier work; for Reduction in total uptake (%): NH4Cl 20 mM
# [15] = tested on: Lung tissue slices from male Wistar rats; parameters: method as in ref (14) (a number printed in a supplementary file, which may have a reference list of its own: not looked up in the article's list); details: monensin 10 µM, drug 5 µM, 60 min, ref (14); cited from earlier work
# [16] = tested on: Lung tissue slices from male Wistar rats; parameters: method as in ref (9) (a number printed in a supplementary file, which may have a reference list of its own: not looked up in the article's list); details: drug 5 µM, 60 min, ref (9), cited from earlier work; for Reduction in total uptake (%): NH4Cl 20 mM
# [17] = tested on: Lung tissue slices from male Wistar rats; parameters: method as in ref (5) (a number printed in a supplementary file, which may have a reference list of its own: not looked up in the article's list); details: NH4Cl 20 mM, drug 5 µM, 60 min, ref (5); cited from earlier work
# [18] = tested on: Liver tissue slices from male Wistar rats; parameters: method as in ref (8) (a number printed in a supplementary file, which may have a reference list of its own: not looked up in the article's list); details: drug 5 µM, 60 min, ref (8), cited from earlier work; for Reduction in total uptake (%): NH4Cl 20 mM
# [19] = tested on: Liver tissue slices from male Wistar rats; parameters: method as in ref (5) (a number printed in a supplementary file, which may have a reference list of its own: not looked up in the article's list); details: NH4Cl 20 mM, drug 5 µM, 60 min, ref (5); cited from earlier work
# [20] = tested on: Brain slices from male Wistar rats; parameters: method as in ref (10) (a number printed in a supplementary file, which may have a reference list of its own: not looked up in the article's list); details: drug 5 µM, 60 min, ref (10), cited from earlier work; for Reduction in total uptake (%): NH4Cl 20 mM; for Reduction of total uptake (%): monensin 10 µM
# [21] = tested on: Liver tissue slices from male Wistar rats; parameters: method as in ref (9) (a number printed in a supplementary file, which may have a reference list of its own: not looked up in the article's list); details: drug 5 µM, 60 min, ref (9), cited from earlier work; for Reduction in total uptake (%): NH4Cl 20 mM
# [22] = tested on: Lung tissue slices from male Sprague-Dawley rats; details: desipramine, diazepam 5 µM, chloroquine, thiopental 10 µM, 60 min, ref (3), cited from earlier work; for Reduction of total uptake (%): monensin 10 µM; for Reduction in total uptake (%): NH4Cl 20 mM
# [23] = tested on: Mouse peritoneal macrophages; parameters: method as in ref (1) (a number printed in a supplementary file, which may have a reference list of its own: not looked up in the article's list); details: drug 50 µM, 120 min, ref (1), cited from earlier work
# [24] = tested on: Liver tissue slices from male Sprague-Dawley rats; parameters: method as in ref (3) (a number printed in a supplementary file, which may have a reference list of its own: not looked up in the article's list); details: desipramine 5 µM, chloroquine 10 µM, 60 min, ref (3), cited from earlier work; for Reduction in total uptake (%): NH4Cl 20 mM
# [25] = tested on: Hepatocytes isolated from male Wistar rats; details: NH4Cl 10 mM, 15 min, ref (2), cited from earlier work
# NR8383 cells [26] = assay: LysoTracker Red (LTR) confocal assessment of lysosomal sequestration in NR8383; assay type: cell-based, rat; details: NH4Cl 20 mM, monensin 5 μM, nigericin 10 μM with 200 nM LTR
smiles,measurement,setting,value
COc1ccc(CC(C)NCC(O)c2ccc(O)c(NC=O)c2)cc1 (centres unmarked) [Formoterol],Acid–base Property,[1],Base
same,LogD7.4,[2],2.60
same,cytotoxicity (LDH) compared to positive control,NR8383 cells [3],less than 5%
same,"Kp at 10 min, 5 μM","[4]; Kp + NH4Cl, 20 mM NH4Cl co-incubated, 10 min",15.5 ± 1.16
same,"Kp at 10 min, 20 µM","[4]; Kp + NH4Cl, 20 mM NH4Cl",19.2 ± 4.13
same,"Kp at 10 min, 5 μM","[4]; Kp Control, control",20.8 ± 3.6
same,"Kp at 10 min, 20 µM","[4]; Kp Control, control",26.5 ± 6.54
same,% Reduction in Kp by NH4Cl,"NR8383 cells [5]; NR8383, 5 μM drug",24 ± 9.0%
same,% Reduction in Kp by Monensin,"NR8383 cells [5]; NR8383, 5 μM drug, monensin 5 μM, 5 min",40 ± 7.5%
same,% Reduction in Kp by Nigericin,"NR8383 cells [5]; NR8383, 5 μM drug, nigericin 10 μM, 5 min",27 ± 5.1 %
same,% Reduction in Kp by NH4Cl,"NR8383 cells [5]; NR8383, 20 µM drug",27 ± 8.1 %
same,% Reduction in CLuptake by Monensin (5 µM),"NR8383 cells [5]; NR8383, at 5 µM drug",41 ± 5.6%
same,% Reduction in CLuptake by NH4Cl (20 mM),"NR8383 cells [5]; NR8383, at 5 µM drug",25 ± 14%
same,% Reduction in CLuptake by Nigericin (10 µM),"NR8383 cells [5]; NR8383, at 5 µM drug",19 ± 12%
same,% Reduction in CLuptake by NH4Cl (20 mM),"NR8383 cells [5]; NR8383, at 20 µM drug",27 ± 13%
same,reduction in Kp in the presence of chemical agents (summary in Discussion),"NR8383 cells [5]; NR8383, NH4Cl, monensin, nigericin",20–40%
same,Kp at 10 min,"[6]; Kp,max, sum of Kp,U1,max and Kp,min",69
same,Kp at 10 min,"[6]; Kp,min, NR8383, 37°C, concentration range, two-site binding model",10 ± 0.92
same,KU1,NR8383 cells [7],1.54 ± 0.49 µM
same,"Kp at 10 min, 5 μM",[8],24.5 ± 8.71
same,Contribution of passive (%),NR8383 cells [9],3.71%
OC(CCN1CCCCC1)(c1ccccc1)C1CC2C=CC1C2 (centres unmarked) [Biperiden],Reduction in total uptake (%),[10],56%
same,Reduction in total uptake (%),[11],77%
same,Reduction in total uptake (%),[12],2.5%
CN(C)CCC=C1c2ccccc2CCc2ccccc21 [Amitriptyline],Reduction of total uptake (%),[13],48%
same,Reduction in total uptake (%),[14],56%
same,Reduction of total uptake (%),[15],70%
same,Reduction in total uptake (%),[16],47%
same,Reduction in total uptake (%),[17],63%
same,Reduction in total uptake (%),[18],68%
same,Reduction in total uptake (%),[19],40%
same,Reduction in total uptake (%),[20],32%
same,Reduction of total uptake (%),[20],31%
same,Reduction in total uptake (%),[21],67%
OC(CCN1CCCCC1)(c1ccccc1)C1CCCCC1 (centres unmarked) [Trihexyphenidyl],Reduction in total uptake (%),[10],54%
same,Reduction in total uptake (%),[11],68%
same,Reduction in total uptake (%),[12],11%
CSc1ccc2c(c1)N(CCC1CCCCN1C)c1ccccc1S2 (centres unmarked) [Thioridazine],Reduction in total uptake (%),[14],41%
same,Reduction of total uptake (%),[14]; monensin 10 µM,35%
same,Reduction in total uptake (%),[18],75%
same,Reduction of total uptake (%),[18]; monensin 10 µM,82%
same,Reduction in total uptake (%),[20],62%
same,Reduction of total uptake (%),[20],58%
CN1CCN(CCCN2c3ccccc3Sc3ccccc32)CC1 [Perazine],Reduction in total uptake (%),[16],58%
same,Reduction of total uptake (%),[16]; monensin 10 µM,71.6%
same,Reduction in total uptake (%),[20],55%
same,Reduction of total uptake (%),[20],55%
same,Reduction in total uptake (%),[21],61%
same,Reduction of total uptake (%),[21]; monensin 10 µM,65%
CNCCC(Oc1ccc(C(F)(F)F)cc1)c1ccccc1 (centres unmarked) [Fluoxetine],Reduction in total uptake (%),[14],41%
same,Reduction of total uptake (%),[15],23%
same,Reduction in total uptake (%),[16],39%
same,Reduction in total uptake (%),[17],21%
CN[C@H]1CC[C@@H](c2ccc(Cl)c(Cl)c2)c2ccccc21 [Sertraline],Reduction of total uptake (%),[13],19%
same,Reduction in total uptake (%),[14],40%
same,Reduction of total uptake (%),[15],50%
same,Reduction in total uptake (%),[16],45%
same,Reduction in total uptake (%),[17],42%
same,Reduction in total uptake (%),[18],42%
same,Reduction in total uptake (%),[21],29%
CCCC(C)C1(CC)C(=O)NC(=S)NC1=O (centres unmarked) [Thiopental],Reduction of total uptake (%),[22],10%
CN [Methylamine],Reduction in total uptake (%),[23]; NH4Cl 10 mM,54%
same,Reduction of total uptake (%),[23]; nigericin 5 µg/ml (~7 µM),49%
CNCCCN1c2ccccc2CCc2ccccc21 [Desipramine],Reduction in total uptake (%),[24],15%
same,Reduction in total uptake (%),[22],23%
same,Reduction of total uptake (%),[22],12%
CCN(CC)CCCC(C)Nc1ccnc2cc(Cl)ccc12 (centres unmarked) [Chloroquine],Reduction in total uptake (%),[10],87%
same,Reduction in total uptake (%),[24],53%
same,Reduction of total uptake (%),[24]; monensin 10 µM,44%
same,Reduction in total uptake (%),[22],66%
same,Reduction of total uptake (%),[22],73%
same,Reduction in total uptake (%),[25]; drug 10 µM,93%
same,Reduction in total uptake (%),[25]; drug 100 µM,77%
"CO[C@@H]1C[C@@H](C[C@H]2CC[C@H](C)[C@H]([C@@H](C)C(=O)O)O2)O[C@]2(O[C@](C)([C@H]3CC[C@@](C)([C@@H]4O[C@@H]([C@H]5O[C@@](O)(CO)[C@H](C)C[C@@H]5C)C[C@@H]4C)O3)C[C@H]2C)[C@@H]1C [nigericin, nigericin sodium salt]",reduced LTR fluorescent signal,NR8383 cells [26],up to 85%
NC(=O)N1c2ccccc2C=Cc2ccccc21 [Carbamazepine],Reduction of total uptake (%),[13],0%
same,Reduction of total uptake (%),[15],5.4%
same,Reduction in total uptake (%),[17],5.4%
same,Reduction in total uptake (%),[19],16.1%
"CC[C@@]1([C@@H]2O[C@@H]([C@H]3O[C@@](O)(CO)[C@H](C)C[C@@H]3C)C[C@@H]2C)CC[C@H]([C@]2(C)CC[C@]3(C[C@H](O)[C@@H](C)[C@@H]([C@@H](C)[C@@H](OC)[C@H](C)C(=O)O)O3)O2)O1 [monensin, monensin sodium salt]",reduced LTR fluorescent signal,NR8383 cells [26],up to 85%
"Cl.N [NH4Cl, ammonium chloride]",reduced LTR fluorescent signal,NR8383 cells [26],up to 85%
CN(C)CCCN1c2ccccc2Sc2ccccc21 [Promazine],Reduction of total uptake (%),[13],86%
same,Reduction of total uptake (%),[15],71%
same,Reduction in total uptake (%),[17],46.8%
same,Reduction in total uptake (%),[19],59%
same,Reduction in total uptake (%),[20],20%
same,Reduction of total uptake (%),[20],35%
